One assay relates to EXCY2 mice. Kind of assay: Spontaneous UC-like colitis in EXCY2 mice (IL10-/-; Nox1-/-): DAI, colon histology, stress pathways. The format is in vivo. To be noted: for DAI score: OxA 0.22 μmoles/kg intraperitoneal or 5-ASA 0.053 g/kg oral, scale 0 (no symptoms) to 4 (severe colitis), untreated mice 4, FIG. 7; for severe colitis: 10 week-old EXCY2 mice, 2 IP/week during 3 weeks. From the text: FIG. 4: Histological aspect of colon mucosa in OxA treated mice (right) and non-treated mice (left)
FIG. 7: OXA better improves the DAI (weight and colitis score) of EXCY2 mice that the gold standard 5-aminosalicylic acid (5-ASA) treatment. Mice were intraperitoneal injected or not with OxA (0.22 μmoles/kg) or orally treated with 5-ASA (0.053 g/kg). DAI score including the weight loss, severity of diarrhea, the presence of blood in the stool, inflammation and edema was estimated using a scale ranging from 0 (no symptoms) to 4 (severe colitis).
DSS mouse model has been extensively used to decipher the mucosal inflammation in IBD, UC pathogenesis, and preclinical studies. However, mice show differential susceptibilities and responsiveness to DSS-induced colitis depending on their genetic background, gender. DSS model is a faithful model of inflammation but departs from Ulcerative Colitis in part for lack of the inflammation gradient from the rectum to the proximal colon usually observed in UC, any deregulation of ER stress in goblet cells known to be an early etiological factor of UC, and no digestive or extra-digestive complications of UC such as cholangitis and colorectal cancer, respectively. The use of genetically modified mice model represents a good alternative to chemically-induced colitis mice model. The recent development of a new spontaneous UC-like mouse model (EXCY2 mice, WO/2012/140516) consisting of a double KO of IL10 and Nox1 (IL10^−/−; Nox1^−/−) is ideally suited to study the OxA effect on spontaneous colitis. Indeed, EXCY2 mice 1) develop a spontaneous colitis at 6/7 weeks of age with an upwards gradient from the rectum and reproduce all molecular characteristics seen in UC including, loss of goblet cells, deregulation of ER stress, protective effect of tobacco; 2) spontaneously colonic cancer at 8 months of age (35-40% of mice); 3) develop mild cholangitis.
(§1) In contrast, the secretion of anti-inflammatory cytokine IL10 was unchanged (FIG. 6).
The treatment of EXCY2 mice with 5-ASA reduced the DAI score as compared to untreated mice, i.e. 3 vs 4, respectively.

In assay [1] the test system is cytokines secretion in colon extracts from DSS-treated mice. Kind of assay: Cytokine secretion in colon extracts of DSS-induced colitis mice. The class given is in vivo. To be noted: FIG. 3. From the text: FIG. 3: OXA effects on cytokines secretion in DSS-induced colitis mice
(§2) These observations are confirmed by histologic aspect of colon epithelium (histologic scoring by a GI pathologist). Thus, OxA has probably an anti-inflammatory effect on DSS-induced colitis. To confirm this hypothesis, we have investigated the anti-inflammatory effect of OxA treatment on cytokines secretion in colon extracts from DSS-treated mice. […] In contrast, OxA has no effect on INFγ, IL10, and IL12 cytokine secretion in colon extracts (FIG. 3).

The next assay concerns Caco2 cells. Kind of assay: Oxidative stress and ER stress pathways in Caco2 cells. The class given is cell-based.
In assay [2] the test system is cytokines secretion in EXCY2 mice. Kind of assay: Cytokine secretion in colons of EXCY2 mice (Cytokine CBA kits). The note with it: OxA 0.22 μmoles/kg, FIG. 6. The class given is in vivo. Here is the method:
FIG. 6: OXA effects on cytokines secretion in EXCY2 mice. Colons of EXCY2 mice from untreated mice (white) and treated with OxA (0.22 μmoles/kg) treatment (black) were resected after animal sacrifice. Then, protein extraction was performed by tissue disruption. Cytokines were determined using Cytokine CBA kits (see Material and Methods).
as §1

Another assay concerns DSS-induced colitis mice. Kind of assay: DSS-induced colitis in mice: Disease Activity Index and colon histology. The format is in vivo.
Description: FIG. 2: OXA ameliorates the DAI (weight and colitis score) of DSS-induced colitis mice. Mice were orally treated with 5% DSS for 7 days.
FIG. 5: OXA ameliorates the DAI (weight and colitis score) of DSS-induced colitis mice. Mice were orally treated with 5% DSS for 7 days in the presence or in the absence of daily intraperitoneal injection of OxA (0.22 μmoles/kg). DAI score including weight loss, severity of diarrhea, the presence of blood in the stool, inflammation and edema was estimated using a scale ranging from 0 (no symptoms) to 4 (severe colitis). DSS, dextran sulfate sodium; WT, wild type mice.
Based on these observations, we have investigated the effect of Orexin A (OxA) on acute inflammation in mice treated with Dextran Sulfate Sodium (DSS). OxA was preferentially chosen in these experiments since the presence of two disulphide bridges confers it more stability. DSS induces acute colitis characterized by weight loss, bloody diarrhea, intestinal ulcerations and infiltrations with granulocytes.
as §2
As shown in FIG. 5 when DSS-induced colitis mice were treated with OxA, the DAI score was ameliorated (about of 1.5).

[3] abbreviates: colon extracts of DSS-induced colitis mice.
Setting [4] is: colon extracts of DSS-treated mice.

`Nc1ccc(O)c(C(=O)O)c1` [5-ASA, 5-aminosalicylic acid, reference compound] had a DAI score in the assay on EXCY2 mice (EXCY2 mice) of 3.

Regarding “Orexin-A (XPLPDCCRQKTCSCRLYELLHGAGNHAAGILTLX; not fully specified; two disulphide bridges; MOD_RES (1)..(1) PYRROLIDONE CARBOXYLIC ACID; (34)..(34) Xaa can be any naturally occurring amino acid; listed as Homo sapiens) [OxA]”, in assay [1] (setting [3]), the IL1B secretion entry is given as “reduces”, the IL6 secretion result was “reduces”, the IL8 homolog secretion result is “reduces” and the TNFα secretion result is recorded as “reduces”. Further, in assay [1] (setting [4]), the IL10 cytokine secretion entry was “no effect”, the IL12 cytokine secretion result is listed as “no effect” and the INFγ cytokine secretion result was “no effect”. The severe colitis result in the assay with EXCY2 mice (0.22 μmoles/kg OxA) is listed as “alleviated”. In addition, the severe colitis entry in the assay on EXCY2 mice (1 μM OxA) is reported as “alleviated”. In addition, in the assay with EXCY2 mice (EXCY2 mice), the “deregulated pathways involved in the onset of colitis (oxidative stress and ER stress)” value is given as “induced”; the DAI score stood at 1.5. Besides, the “colonic mucosa (general crypts aspect, crypt size, presence of goblet cells, absence of immune cells infiltration)” value in the assay with EXCY2 mice (OxA-treated vs vehicle treated EXCY2 mice, FIG. 4) was “normal colonic mucosa”. The “deregulated pathways involved in the onset of colitis (oxidative stress and ER stress)” value with Caco2 cells is “induced”. Besides, in assay [2], the IFNγ secretion result is given as “strong reduction”, the IL6 secretion entry is on record as “strong reduction”, the IL10 secretion entry is given as “unchanged” and the IL12 secretion entry was “strong reduction”. Further, in assay [2], the MCP1 secretion entry is “strong reduction” and the TNFα secretion result is reported as “strong reduction”. The DAI score in the assay on DSS-induced colitis mice (5% DSS orally 7 days, daily intraperitoneal OxA 0.22 μmoles/kg, scale 0 (no symptoms) to 4 (severe colitis), FIG. 5, printed as 'ameliorated (about of 1.5)') is around 1.5. In the assay with DSS-induced colitis mice (DSS-treated mice, histologic scoring by a GI pathologist), the “histologic aspect of colon epithelium” value is listed as “ameliorates”. Moreover, the “Disease Activity Index (DAI) scored by measuring weight, length of colon, diarrhea and the presence of blood in the stool” value in the assay on DSS-induced colitis mice (orally DSS-treated mice (5% DSS for 7 days), FIG. 2) is listed as “ameliorates”.
